Laboratory results from patent US20140017336A1, “CO-ADMINISTRATION OF ARSENIC COMPOUNDS AND ANTI-HERPES VIRUS ANTI-VIRALS” (priority 2011, published 2014).
“Also recorded” adds a separate entry of the source.

Experiments:
PML NB = target: T1, PML NB (Homo sapiens, UniProt P29590); format: cell-based
T1 construct: CNE1 cells were infected with the BX-1 strain of EBV and PML-NBs were imaged by fluorescent microscopy; endogenous in cells; host or cells: CNE1<EBV-BX1> (EBV-infected CNE1) and uninfected parental CNE1
T1 sequence (P29590 1-882): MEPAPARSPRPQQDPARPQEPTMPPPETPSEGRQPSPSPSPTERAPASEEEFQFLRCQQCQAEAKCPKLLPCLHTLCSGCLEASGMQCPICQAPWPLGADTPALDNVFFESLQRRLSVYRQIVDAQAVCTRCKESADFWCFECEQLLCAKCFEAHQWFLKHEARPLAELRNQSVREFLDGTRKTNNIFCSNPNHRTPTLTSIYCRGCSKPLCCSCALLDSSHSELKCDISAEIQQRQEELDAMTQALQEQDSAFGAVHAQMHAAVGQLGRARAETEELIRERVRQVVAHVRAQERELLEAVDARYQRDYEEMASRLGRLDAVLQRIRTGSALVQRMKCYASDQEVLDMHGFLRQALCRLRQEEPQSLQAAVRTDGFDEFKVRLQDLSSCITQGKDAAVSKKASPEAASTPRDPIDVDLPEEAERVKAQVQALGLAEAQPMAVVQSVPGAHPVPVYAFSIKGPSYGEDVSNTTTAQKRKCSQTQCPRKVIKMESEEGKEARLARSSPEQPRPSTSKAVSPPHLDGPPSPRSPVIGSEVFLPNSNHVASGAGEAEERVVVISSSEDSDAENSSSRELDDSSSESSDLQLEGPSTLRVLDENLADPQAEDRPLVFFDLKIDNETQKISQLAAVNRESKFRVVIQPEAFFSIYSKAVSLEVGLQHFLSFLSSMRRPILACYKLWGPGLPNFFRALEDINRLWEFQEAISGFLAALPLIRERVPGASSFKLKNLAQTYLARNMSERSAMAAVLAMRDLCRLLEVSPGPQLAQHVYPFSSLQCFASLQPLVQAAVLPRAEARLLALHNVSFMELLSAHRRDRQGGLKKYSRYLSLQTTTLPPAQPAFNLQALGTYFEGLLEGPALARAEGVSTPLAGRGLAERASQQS

[1] = test system: uninfected parental A549 cells; conditions: 4 days, 10 nM ATO, 40 μM GCV
EBV BMRF1 mRNA [2] = format: cell-based, Epstein-Barr virus; conditions: within 72 hours, qRT-PCR
CNE1<EBV BX1> tumors = assay: CNE1<EBV BX1> nasopharyngeal carcinoma xenograft, tumor volume; format: in vivo, male nude mice; conditions: 21 days of once daily treatment; GCV 100 μg/g, ATO 100 ng/g; carrier control just under double
EBV BMRF1 mRNA [3] = assay: qRT-PCR of BMRF1 mRNA in CNE1<EBV-BX1> cells; format: cell-based, Epstein-Barr virus

## arsenic trioxide [ATO]
PML NB; 1.0 nM ATO
  PML NB immunofluorescence signal: below that of baseline untreated uninfected cells
PML NB; EBV positive CNE1 cells
  ATO concentration sufficient to disrupt PML NBs: 1 nM
  PML NB immunofluorescence intensity, dose response: diminished by exposure to ATO in a dose dependent manner
[1]
  viability of uninfected parental cells: did not affect the viability; also recorded: no effect on the viability
EBV BMRF1 mRNA [2]
  ATO dose inducing BMRF1 mRNA: ≥ 12.5 nM
CNE1<EBV BX1> tumors
  tumor size increase over size at day 7 (pre-treatment): approximately 10%
EBV BMRF1 mRNA [3]; 48 hours, 'as low as', to a lesser extent than ZTA
  ATO dose inducing upregulation of BMRF1 mRNA: 1.25 nM
EBV BMRF1 mRNA [3]; 4 days, 1 nM ATO and/or 40 μM GCV
  BMRF1 mRNA expression compared to control: increased
